Legend:
[1] = Stability in CDCl3 solution according to NMR spectra; format: physicochemical; conditions: CDCl3, 25° C.
Procedure: NMR spectra were recorded with a Varian UNITY INOVA 600 MHz spectrometer equipped with a cryoprobe in CDCl3 solution at 25° C. Chemical shifts are reported in ppm relative to residual solvent signal (δ(^1H) 7.25 ppm, δ(^13C) […]). Two-dimensional spectra recorded included DQF-COSY, NOESY, TOCSY, sensitivity-enhanced ^13C-HSQC and ^13C-^1H HMBC. Pulsed-field gradients were used for all ^13C correlation spectra. The NOESY mixing time was 800 ms, the TOCSY one 70 ms. ^13C-HMBC spectra were recorded with coupling evolution delay for the generation of multiple-bond correlations set to 62.5 ms. All 2D spectra were run with 4096*1024 points data matrix, giving τ2max=250 ms for ^1H nucleus in acquisition dimension and τ1max=100 ms for ^1H or τ1max=50 ms for ^13C for indirect dimension. Prior to Fourier transform the data matrix was zero-filled twice and multiplication by shifted sine-bell window function applied. For ^1H-^13C HMBC the magnitude spectra were calculated. Graphs from the spectra recorded are shown in drawing section FIGS. 15-27.

male mice = assay: Mice sexual behaviour test (number of mounts); format: in vivo

Row | activity (Umnt) = 1/EC50 (male mice; subcutaneous x3 days, 7th day as basis) | SMILES | stability in CDCl3 solution according to the NMR spectra [1] | increase of number of mounts counted during the 3 hour period (male mice; subcutaneous 0.4 mg/kg x3 days, D4) | sexual activity (number of mounts over a 3 hour period) (male mice; subcutaneous in sun-flower oil x3 days, lowest dose (0.004 mg/kg)) | sexual activity (number of mounts over a 3 hour period) (male mice; subcutaneous in sun-flower oil x3 days, two highest doses (0.4 and 0.04 mg/kg), D-4, D-7, D-14) | time course of the effect on number of mounts (male mice; subcutaneous x3 days, tested D-4, D-7, D-14) | sexual activity (number of mounts over a 3 hour period) (male mice; subcutaneous in sun flower-oil x3 days, highest dose (4 mg/kg), all days tested (D-4, D-7, D-14)) | sexual activity (number of mounts over a 3 hour period) (male mice; subcutaneous x3 days, two lower doses (0.4 and 0.04 mg/kg))
1 | about 15 U/mg | COC(=O)CC1C2(C)CC34OC5(C)OC67C(CC(=O)OC6C3(OC(=O)C(C)C)C2OC(=O)C(C)C)C(C)(C(=O)c2ccoc2)CCC7(O5)C14C (stereo not drawn) [R306] | stable during several weeks | about 3.5 fold | tendency of increase | significant increases | peaked at D7, while clear effects were seen also at D14 |  | 
2 |  | COC(=O)CC1C2(C)CC34OC5(C)OC67C(C(C(=O)C(C)C)C(=O)OC6C3(O)C2OC(C)=O)C(C)(C(OC(C)=O)c2ccoc2)CCC7(O5)C14C (stereo not drawn) [R310] | consisted of two isomers which slowly interchanged |  |  |  |  | Significant increases | significantly increased only on D-4

Reference: patent US20100247593A1, “NOVEL COMPOUNDS AND PHARMACEUTICAL PREPARATIONS” (priority 2007, published 2010)
